We go through 15 molecules from patent US8263598B2, “Substituted sulfonamide compounds” (Gruenenthal GmbH, priority 2008, dated 2012).

Broadly, the inhibition is the relative decrease from the control value, in per cent.

The structures appear in SMILES notation.

Assay [1] deals with T1, human B1R receptor (hB1R) (Homo sapiens, UniProt P46663).
T1 construct: host or cells: CHO K1 cells
T1 sequence (P46663 1-353): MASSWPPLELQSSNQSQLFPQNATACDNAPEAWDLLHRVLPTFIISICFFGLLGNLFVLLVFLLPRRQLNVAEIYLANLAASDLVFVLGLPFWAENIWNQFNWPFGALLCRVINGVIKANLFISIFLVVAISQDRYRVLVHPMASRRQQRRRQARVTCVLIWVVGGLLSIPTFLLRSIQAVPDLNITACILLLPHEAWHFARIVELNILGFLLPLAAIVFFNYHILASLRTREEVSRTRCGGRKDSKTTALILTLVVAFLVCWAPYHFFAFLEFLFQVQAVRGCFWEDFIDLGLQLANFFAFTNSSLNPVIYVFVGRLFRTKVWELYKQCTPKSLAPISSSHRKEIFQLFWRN
Put plainly: FLIPR Ca2+ assay on human bradykinin 1 receptor (CHO K1 hB1R cells). It is filed as cell-based. The following applies: test substance 10 μM; CHO K1 cells with human B1R gene; agonist Lys-Des-Arg9-bradykinin 0.5 nM; compared to maximum achievable inhibition. Put shortly:
(§1)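 Values are percent inhibition of agonist-evoked Ca²⁺ influx, measured by Fluo-4 fluorescence peak in FLIPR relative to maximum achievable inhibition. Compound at 10 μM was preincubated 10 min on B1R-transfected CHO K1 cells before challenge with 0.5 nM Lys-Des-Arg9-bradykinin (human) or 100 nM Des-Arg9-bradykinin (rat).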

Assay [2] deals with T2, B1R receptor of rats (rB1R) (Rattus norvegicus, UniProt P97583).
T2 construct: host or cells: CHO K1 cells
T2 sequence (P97583 1-337): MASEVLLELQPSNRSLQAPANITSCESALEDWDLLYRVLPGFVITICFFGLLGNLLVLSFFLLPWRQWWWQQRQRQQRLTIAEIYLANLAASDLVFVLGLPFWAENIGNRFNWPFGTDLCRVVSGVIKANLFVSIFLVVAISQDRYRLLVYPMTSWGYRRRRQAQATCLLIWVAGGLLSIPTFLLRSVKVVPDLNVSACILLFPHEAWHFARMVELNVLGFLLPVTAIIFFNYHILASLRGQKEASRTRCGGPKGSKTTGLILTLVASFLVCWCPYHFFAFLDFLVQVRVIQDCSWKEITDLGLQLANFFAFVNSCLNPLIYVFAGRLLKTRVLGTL
Put plainly: FLIPR Ca2+ assay on rat bradykinin 1 receptor (CHO K1 rB1R cells). Conditions: test substance 10 μM; CHO K1 cells with B1R gene of rats; agonist Des-Arg9-bradykinin 100 nM; compared to maximum achievable inhibition. It is filed as cell-based. Put shortly: as §1

For the molecule `COc1cc(C)c(S(=O)(=O)N(C)CCOCC(=O)N2CCn3cc(Cc4ccncc4)nc3C2)c(C)c1` [Example 179, 4-Methoxy-N,2,6-trimethyl-N-(2-(2-oxo-2-(2-(pyridin-4-ylmethyl)-5,6-dihydroimidazo[1,2-a]pyrazin-7(8H)-yl)ethoxy)ethyl)benzenesulfonamide], the inhibition at 10 µM in assay [1] and in assay [2] was 100% throughout.
In the case of `COc1cc(C)c(S(=O)(=O)N(C)CCOCC(=O)N2CCn3c(CCc4cccnc4)ccc3C2)c(C)c1` [Example 170, 4-Methoxy-N,2,6-trimethyl-N-(2-(2-oxo-2-(6-(2-(pyridin-3-yl)ethyl)-3,4-dihydropyrrolo[1,2-a]pyrazin-2(1H)-yl)ethoxy)ethyl)benzenesulfonamide], the inhibition at 10 µM was determined as 99% in assay [1] and 98% in assay [2].
Consider `COc1cc(C)c(S(=O)(=O)N(CCOCC(=O)N2CCn3c(CN4CCOCC4)ccc3C2c2ccccc2)Cc2ccccc2)c(C)c1C` (stereo not drawn) [Example 117, N-benzyl-4-methoxy-2,3,6-trimethyl-N-(2-(2-(6-(morpholinomethyl)-1-phenyl-3,4-dihydropyrrolo[1,2-a]pyrazin-2(1H)-yl)-2-oxoethoxy)ethyl)benzene-sulfonamide], for which the inhibition at 10 µM in assay [1] came to 82%; in assay [2] it was 88%.
The corresponding values for `Cc1cc(C)c(S(=O)(=O)N(C)CCOCC(=O)N2CCn3cccc3C2c2ccc(F)c(F)c2)c(C)c1` (stereo not drawn) [Example 71, N-(2-(2-(1-(3,4-difluorophenyl)-3,4-dihydropyrrolo[1,2-a]pyrazin-2(1H)-yl)-2-oxoethoxy)ethyl)-N,2,4,6-tetramethylbenzenesulfonamide] are 95% and 95%.
With `COc1cc(C)c(S(=O)(=O)N(CCOCC(=O)N2CCn3cccc3C2c2ccc(C)c(C)c2)Cc2ccccc2)c(C)c1` (stereo not drawn) [Example 49, N-benzyl-N-(2-(2-(1-(3,4-dimethylphenyl)-3,4-dihydropyrrolo[1,2-a]pyrazin-2(1H)-yl)-2-oxoethoxy)ethyl)-4-methoxy-2,6-dimethylbenzenesulfonamide], the inhibition at 10 µM came to 39% in assay [1] and 69% in assay [2].
As for `COc1cc(C)c(S(=O)(=O)N(C)CCOCC(=O)N2CCn3ccnc3C2)c(C)c1` [Example 56, N-(2-(2-(5,6-dihydroimidazo[1,2-a]pyrazin-7(8H)-yl)-2-oxoethoxy)ethyl)-4-methoxy-N,2,6-trimethylbenzenesulfonamide], the inhibition at 10 µM is 85% in assay [1] and 97% in assay [2].
For `Cc1cc(C)c(S(=O)(=O)N(C)CCOCC(=O)N2CCn3cccc3C2c2cccnc2)c(C)c1` (stereo not drawn) [Example 67, N,2,4,6-tetramethyl-N-(2-(2-oxo-2-(1-(pyridin-3-yl)-3,4-dihydropyrrolo[1,2-a]pyrazin-2(1H)-yl)ethoxy)ethyl)benzenesulfonamide] the same measures were 99% and 100%.
The corresponding values for `COc1cc(C)c(S(=O)(=O)N(C)CCOCC(=O)N2CCn3cccc3C2c2ccc(C(C)(C)C)cc2)c(C)c1` (stereo not drawn) [Example 64, N-(2-(2-(1-(4-tert-butylphenyl)-3,4-dihydropyrrolo[1,2-a]pyrazin-2(1H)-yl)-2-oxoethoxy)ethyl)-4-methoxy-N,2,6-trimethylbenzenesulfonamide] are 100% and 99%.
The corresponding values for `CCC1c2cccn2CCN1C(=O)COCCN(Cc1ccccc1)S(=O)(=O)c1c(C)cc(OC)cc1C` (stereo not drawn) [Example 132, N-benzyl-N-(2-(2-(1-ethyl-3,4-dihydropyrrolo[1,2-a]pyrazin-2(1H)-yl)-2-oxoethoxy)ethyl)-4-methoxy-2,6-dimethylbenzenesulfonamide] are 100% and 102%.
As for `COc1cc(C)c(S(=O)(=O)N(CCOCC(=O)N2CCn3cccc3C2C(C)(C)C)CC(C)C)c(C)c1C` (stereo not drawn) [Example 18, N-(2-(2-(1-tert-butyl-3,4-dihydropyrrolo[1,2-a]pyrazin-2(1H)-yl)-2-oxoethoxy)ethyl)-N-isobutyl-4-methoxy-2,3,6-trimethylbenzenesulfonamide], the results for the inhibition at 10 µM in assay [1] and in assay [2] were 82% and 98%, respectively.
The corresponding values for `COc1cccc(C2c3cccn3CCN2C(=O)COCCN(C)S(=O)(=O)c2cc(C)c(OC)c(C)c2C)c1` (stereo not drawn) [Example 38, 4-methoxy-N-(2-(2-(1-(3-methoxyphenyl)-3,4-dihydropyrrolo[1,2-a]pyrazin-2(1H)-yl)-2-oxoethoxy)ethyl)-N,2,3,5-tetramethylbenzenesulfonamide] are 97% and 43%.
For `COc1cccc(C2c3cccn3CCN2C(=O)COCCN(C)S(=O)(=O)c2c(C)cc(C)cc2C)c1` (stereo not drawn) [Example 76, N-(2-(2-(1-(3-methoxyphenyl)-3,4-dihydropyrrolo[1,2-a]pyrazin-2(1H)-yl)-2-oxoethoxy)ethyl)-N,2,4,6-tetramethylbenzenesulfonamide] the same measures were 101% and 97%.
With `COc1c(C)cc(S(=O)(=O)N(C)CCOCC(=O)N2CCn3cccc3C2c2ccc(Cl)nc2)c(C)c1C` (stereo not drawn) [Example 30, N-(2-(2-(1-(6-chloropyridin-3-yl)-3,4-dihydropyrrolo[1,2-a]pyrazin-2(1H)-yl)-2-oxoethoxy)ethyl)-4-methoxy-N,2,3,5-tetramethylbenzenesulfonamide], the inhibition at 10 µM was found to be 98% in assay [1] and 76% in assay [2].
The corresponding values for `COc1cc(C)c(S(=O)(=O)N(C)CCOCC(=O)N2CCn3cccc3C2c2ccc(C(C)(C)C)cc2)c(C)c1C` (stereo not drawn) [Example 90, N-(2-(2-(1-(4-tert-butylphenyl)-3,4-dihydropyrrolo[1,2-a]pyrazin-2(1H)-yl)-2-oxoethoxy)ethyl)-4-methoxy-N,2,3,6-tetramethylbenzenesulfonamide] are 47% and 66%.
For the molecule `COc1cc(C)c(S(=O)(=O)N(C)CCOCC(=O)N2CCn3c(Cc4cccnc4)ccc3C2)c(C)c1` [Example 174, 4-Methoxy-N,2,6-trimethyl-N-(2-(2-oxo-2-(6-(pyridin-3-ylmethyl)-3,4-dihydropyrrolo[1,2-a]pyrazin-2(1H)-yl)ethoxy)ethyl)benzenesulfonamide], the inhibition at 10 µM in assay [1] worked out at 100%; in assay [2] it was 94%.
